Reference: US12686673B2 (Blueprint Medicines Corporation, priority 2020, dated 2026)
Structures can show the parent of a compound that is named as a salt. Where two headings read alike, the source gives them in different places.

Assays:
Type in all cases: cell-based
[1] = molecular target: EGFR(D770_N771insSVD) expressing Ba/F3 stable cell line (Homo sapiens, UniProt P00533, DUP768-770, cells depend on it); assay: Cellular proliferation (Alamar Blue) assay, EGFR D770_N771insSVD Ba/F3; settings: 72 hr, read-out: D770 IC50
Sequence of EGFR(D770_N771insSVD) expressing Ba/F3 stable cell line (P00533 with tags, fused parts or gaps DUP768-770): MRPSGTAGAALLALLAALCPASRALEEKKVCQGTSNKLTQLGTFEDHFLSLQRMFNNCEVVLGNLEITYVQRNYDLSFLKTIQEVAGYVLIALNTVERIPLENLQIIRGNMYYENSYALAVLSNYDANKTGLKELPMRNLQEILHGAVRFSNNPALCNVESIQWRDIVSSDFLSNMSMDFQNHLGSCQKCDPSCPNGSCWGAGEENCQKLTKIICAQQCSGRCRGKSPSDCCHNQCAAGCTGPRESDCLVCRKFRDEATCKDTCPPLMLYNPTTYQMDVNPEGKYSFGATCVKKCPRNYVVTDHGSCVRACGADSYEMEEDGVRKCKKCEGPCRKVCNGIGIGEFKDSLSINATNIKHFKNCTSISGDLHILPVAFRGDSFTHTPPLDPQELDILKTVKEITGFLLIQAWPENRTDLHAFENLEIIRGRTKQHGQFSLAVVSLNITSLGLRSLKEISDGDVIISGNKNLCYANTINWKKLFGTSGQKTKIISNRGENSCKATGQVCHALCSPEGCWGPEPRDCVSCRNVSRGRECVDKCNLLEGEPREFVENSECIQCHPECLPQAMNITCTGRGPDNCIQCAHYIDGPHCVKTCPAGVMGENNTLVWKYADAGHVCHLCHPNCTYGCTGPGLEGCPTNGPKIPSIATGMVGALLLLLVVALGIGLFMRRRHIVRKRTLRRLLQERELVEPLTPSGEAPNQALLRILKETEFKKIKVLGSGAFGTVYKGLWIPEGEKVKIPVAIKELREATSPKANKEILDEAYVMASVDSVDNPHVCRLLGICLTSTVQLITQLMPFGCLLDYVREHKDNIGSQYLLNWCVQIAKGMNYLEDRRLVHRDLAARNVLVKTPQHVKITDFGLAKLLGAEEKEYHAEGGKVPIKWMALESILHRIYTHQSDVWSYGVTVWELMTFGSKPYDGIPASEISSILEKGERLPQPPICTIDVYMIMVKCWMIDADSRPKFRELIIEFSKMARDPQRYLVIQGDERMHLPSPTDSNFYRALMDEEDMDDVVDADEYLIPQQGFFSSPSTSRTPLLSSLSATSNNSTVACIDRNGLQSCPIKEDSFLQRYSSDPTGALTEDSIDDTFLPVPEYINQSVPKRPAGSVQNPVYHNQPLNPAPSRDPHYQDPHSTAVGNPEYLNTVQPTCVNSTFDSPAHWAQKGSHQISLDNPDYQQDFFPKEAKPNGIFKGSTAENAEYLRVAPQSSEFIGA
How it was run: (§1)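 Proliferation of mutant-dependent Ba/F3 lines is measured by Alamar Blue reduction over 3 hours, following a 72 hr incubation with test compound spanning 10-0.0005 μM final in threefold dilutions. Cells go in at 15,000 per well in RPMI containing 10% FBS the day before dosing.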

[2] = molecular target: EGFR (A767_dupASV) expressing Ba/F3 stable cell line (Homo sapiens, UniProt P00533, DUP767-769, cells depend on it); assay: Cellular proliferation (Alamar Blue) assay, EGFR A767_dupASV Ba/F3; settings: 72 hr, read-out: A767 IC50
Sequence of EGFR (A767_dupASV) expressing Ba/F3 stable cell line (P00533 with tags, fused parts or gaps DUP767-769): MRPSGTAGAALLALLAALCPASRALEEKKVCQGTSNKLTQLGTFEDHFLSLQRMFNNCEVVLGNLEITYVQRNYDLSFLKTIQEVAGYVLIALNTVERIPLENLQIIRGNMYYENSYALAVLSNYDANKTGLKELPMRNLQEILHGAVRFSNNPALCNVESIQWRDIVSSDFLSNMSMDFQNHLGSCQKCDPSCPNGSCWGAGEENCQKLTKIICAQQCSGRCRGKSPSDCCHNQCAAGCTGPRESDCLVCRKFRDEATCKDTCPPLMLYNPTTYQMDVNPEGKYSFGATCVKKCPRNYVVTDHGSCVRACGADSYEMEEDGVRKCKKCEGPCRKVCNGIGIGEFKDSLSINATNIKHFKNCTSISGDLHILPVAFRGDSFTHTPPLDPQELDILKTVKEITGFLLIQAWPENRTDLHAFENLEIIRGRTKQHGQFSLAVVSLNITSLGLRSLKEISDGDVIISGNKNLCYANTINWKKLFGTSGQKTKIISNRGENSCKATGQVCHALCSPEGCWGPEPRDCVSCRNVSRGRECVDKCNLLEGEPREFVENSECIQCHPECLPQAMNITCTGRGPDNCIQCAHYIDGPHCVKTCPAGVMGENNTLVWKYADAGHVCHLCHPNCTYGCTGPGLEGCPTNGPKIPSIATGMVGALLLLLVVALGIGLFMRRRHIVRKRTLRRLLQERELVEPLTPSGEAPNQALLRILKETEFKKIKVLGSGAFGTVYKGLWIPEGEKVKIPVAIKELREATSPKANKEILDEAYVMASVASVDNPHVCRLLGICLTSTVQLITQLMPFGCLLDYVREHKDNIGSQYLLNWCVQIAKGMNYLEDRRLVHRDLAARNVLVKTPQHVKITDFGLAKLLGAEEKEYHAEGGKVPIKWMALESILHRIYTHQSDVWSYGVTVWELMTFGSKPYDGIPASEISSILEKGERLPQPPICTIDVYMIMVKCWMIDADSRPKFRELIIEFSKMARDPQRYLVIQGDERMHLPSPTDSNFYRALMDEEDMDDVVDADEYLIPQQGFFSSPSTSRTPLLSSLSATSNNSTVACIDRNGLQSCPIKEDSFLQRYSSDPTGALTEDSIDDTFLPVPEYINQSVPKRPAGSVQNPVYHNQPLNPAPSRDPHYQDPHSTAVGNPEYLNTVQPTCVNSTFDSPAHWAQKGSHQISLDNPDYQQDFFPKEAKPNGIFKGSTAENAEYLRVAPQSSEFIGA
How it was run: as §1

A431 cells = assay: Cellular proliferation (Alamar Blue) assay, A431
[3] = molecular target: HER2 (A775_G776insYVMA) expressing Ba/F3 stable cell line (Homo sapiens, UniProt P04626, DUP772-775, cells depend on it); assay: Cellular proliferation (Alamar Blue) assay, HER2 A775_G776insYVMA Ba/F3; settings: 72 hr, read-out: YVMA IC50
Sequence of HER2 (A775_G776insYVMA) expressing Ba/F3 stable cell line (P04626 with tags, fused parts or gaps DUP772-775): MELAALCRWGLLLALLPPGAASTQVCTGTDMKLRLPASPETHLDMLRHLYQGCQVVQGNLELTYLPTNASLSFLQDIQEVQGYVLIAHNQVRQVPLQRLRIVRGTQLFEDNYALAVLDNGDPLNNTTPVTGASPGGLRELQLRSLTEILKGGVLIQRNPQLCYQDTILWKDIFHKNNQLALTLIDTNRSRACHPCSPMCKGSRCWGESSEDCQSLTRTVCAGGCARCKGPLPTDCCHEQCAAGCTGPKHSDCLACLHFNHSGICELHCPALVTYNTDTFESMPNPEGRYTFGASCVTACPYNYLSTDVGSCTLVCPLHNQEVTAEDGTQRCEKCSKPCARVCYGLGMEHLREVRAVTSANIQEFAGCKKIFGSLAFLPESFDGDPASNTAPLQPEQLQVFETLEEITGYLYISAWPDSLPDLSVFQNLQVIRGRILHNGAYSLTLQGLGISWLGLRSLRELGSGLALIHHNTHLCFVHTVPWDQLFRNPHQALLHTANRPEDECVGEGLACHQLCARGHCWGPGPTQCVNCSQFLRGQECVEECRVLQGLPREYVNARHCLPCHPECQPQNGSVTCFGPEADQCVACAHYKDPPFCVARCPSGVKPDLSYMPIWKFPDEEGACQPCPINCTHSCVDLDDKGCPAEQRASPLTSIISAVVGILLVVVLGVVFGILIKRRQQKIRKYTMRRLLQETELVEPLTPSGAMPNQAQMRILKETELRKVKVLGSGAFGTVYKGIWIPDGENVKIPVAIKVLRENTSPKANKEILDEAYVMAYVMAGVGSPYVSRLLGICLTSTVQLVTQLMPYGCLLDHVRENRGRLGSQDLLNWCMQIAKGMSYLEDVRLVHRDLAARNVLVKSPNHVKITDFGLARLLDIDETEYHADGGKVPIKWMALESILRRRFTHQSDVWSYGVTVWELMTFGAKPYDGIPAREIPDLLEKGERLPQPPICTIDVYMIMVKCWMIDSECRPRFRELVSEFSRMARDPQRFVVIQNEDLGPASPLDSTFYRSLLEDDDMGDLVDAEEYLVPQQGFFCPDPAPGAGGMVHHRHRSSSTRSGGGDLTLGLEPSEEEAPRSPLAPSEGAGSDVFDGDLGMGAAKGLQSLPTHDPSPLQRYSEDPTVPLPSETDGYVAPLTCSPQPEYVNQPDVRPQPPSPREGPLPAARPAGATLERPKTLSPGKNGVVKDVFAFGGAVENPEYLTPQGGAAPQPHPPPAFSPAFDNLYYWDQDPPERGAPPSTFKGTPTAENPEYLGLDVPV
Description: • 1. EGFR(D770_N771insSVD) expressing Ba/F3 stable cell line • 2. EGFR (A767_dupASV) expressing Ba/F3 stable cell line • 3. A431 cells • 4. EGFR (H773insNPH) expressing Ba/F3 stable cell line • 5. HER2 (A775_G776insYVMA) expressing Ba/F3 stable cell line Assay Procedure: • 1. Seed cells at 5000 for A431 and 15,000 cells for Ba/F3 in 100 μL/well in complete media (for A431: DMEM with […] and for Ba/F3 cells: RPMI with 10% FBS) in 96-well tissue culture plate. Leave outer wells without cells for background measurements. Incubate at 37 degree Celsius in […] humidified incubator for 16-18 hours. • 2. Add 0.025 ml of 5× concentration compound dilution or DMSO control. Final compound concentration range is 10-0.0005 μM prepared in 3-fold serial dilutions. Incubate for 72 hr at 37 degree Celsius in […] humidified incubator. • 3. Add 0.0125 ml Alamar Blue™ reagent to each well with multi-channel pipette and tap gently on each side of the plate to mix. Incubate for 3 hours at 37 degree Celsius in 5% CO2 humidified incubator. • 4. […] Data analysis was performed using XLfit 5.5.0.5.

[4] = Homo sapiens, A-431; A431 cells, Alamar Blue, 72 hr; read-out: A431 IC50
[5] = Homo sapiens, A-431; A431 cells, 72 hr, Alamar Blue; read-out: A431 IC50

GI50 [1]	GI50 [2]	IC50 (A431 cells; [4])	GI50 [3]	IC50 (A431 cells; [5])	SMILES
5580 nM	7380 nM	> 10000 nM	4280 nM		CN(C)C/C=C/C(=O)Nc1ccc(F)c(Nc2nc(Nc3cnn(C4CCC(O)CC4)c3)ncc2Cl)c1 (centres unmarked) [Compound 5, (E)-N-(3-((5-chloro-2-((1-(4-hydroxycyclohexyl)-1H-pyrazol-4-yl)amino)pyrimidin-4-yl)amino)-4-fluorophenyl)-4-(dimethylamino)but-2-enamide]
> 10000 nM	> 10000 nM	> 10000 nM	9010 nM		COC/C=C/C(=O)Nc1ccc(F)c(Nc2nc(Nc3cnn(C)c3)ncc2Cl)c1 [Compound 6, (E)-N-(3-((5-chloro-2-((1-methyl-1H-pyrazol-4-yl)amino)pyrimidin-4-yl)amino)-4-fluorophenyl)-4-methoxybut-2-enamide]
	56 nM	83 nM	349 nM		C=CC(=O)Nc1cccc(Nc2nc(Nc3cnn(C)c3)ncc2-c2ccc(C(F)(F)F)cc2)c1F [Compound 148, N-(2-fluoro-3-((2-((1-methyl-1H-pyrazol-4-yl)amino)-5-(4-(trifluoromethyl)phenyl)pyrimidin-4-yl)amino)phenyl)acrylamide trifluoroacetate]
			> 10000 nM	5610 nM	C=CC(=O)Nc1ccc(F)c(Nc2nc(Nc3cnn(C)c3)ncc2N2CCCCC2)c1 [Compound 269, N-(4-fluoro-3-((2-((1-methyl-1H-pyrazol-4-yl)amino)-5-(piperidin-1-yl)pyrimidin-4-yl)amino)phenyl)acrylamide]
			985 nM	190 nM	C=CC(=O)Nc1ccc(F)c(Nc2nc(Nc3cnn(C)c3)ncc2-c2ccc3c(cnn3C)c2)c1 [Compound 270, N-(4-fluoro-3-((5-(1-methyl-1H-indazol-5-yl)-2-((1-methyl-1H-pyrazol-4-yl)amino)pyrimidin-4-yl)amino)phenyl)acrylamide]
			2160 nM	2960 nM	C=CC(=O)Nc1ccc(F)c(Nc2nc(Nc3cnn(C(C)(C)C#N)c3)ncc2Br)c1 [Compound 271, N-(3-((5-bromo-2-((1-(2-cyanopropan-2-yl)-1H-pyrazol-4-yl)amino)pyrimidin-4-yl)amino)-4-fluorophenyl)acrylamide]
			602 nM	1010 nM	C=CC(=O)Nc1ccc(F)c(Nc2nc(Nc3cnn(C(C)(C)C#N)c3)ncc2C2=CCOC2)c1 [Compound 272, N-(3-((2-((1-(2-cyanopropan-2-yl)-1H-pyrazol-4-yl)amino)-5-(2,5-dihydrofuran-3-yl)pyrimidin-4-yl)amino)-4-fluorophenyl)acrylamide]
			2630 nM	3930 nM	C=CC(=O)Nc1ccc(F)c(Nc2nc(Nc3cnn(CC(C)(C)O)c3)ncc2Br)c1 [Compound 273, N-(3-((5-bromo-2-((1-(2-hydroxy-2-methylpropyl)-1H-pyrazol-4-yl)amino)pyrimidin-4-yl)amino)-4-fluorophenyl)acrylamide]
29 nM			120 nM	22 nM	C=CC(=O)Nc1cccc(Nc2nc(Nc3cnn(C)c3)ncc2-c2ccc(Br)cc2)c1 [Compound 274, N-(3-((5-(4-bromophenyl)-2-((1-methyl-1H-pyrazol-4-yl)amino)pyrimidin-4-yl)amino)phenyl)acrylamide]
			3050 nM	1430 nM	C=CC(=O)Nc1cccc(Nc2ncc(Cl)c(Nc3cnn(C)c3)n2)c1 [Compound 275, N-(3-((5-chloro-4-((1-methyl-1H-pyrazol-4-yl)amino)pyrimidin-2-yl)amino)phenyl)acrylamide]
			861 nM	278 nM	C=CC(=O)Nc1ccc(F)c(Nc2nc(Nc3cnn(C)c3)ncc2-c2ccc(OCc3cccc(F)c3)cc2)c1 [Compound 276, N-(4-fluoro-3-((5-(4-((3-fluorobenzyl)oxy)phenyl)-2-((1-methyl-1H-pyrazol-4-yl)amino)pyrimidin-4-yl)amino)phenyl)acrylamide]
			645 nM	293 nM	C=CC(=O)Nc1ccc(F)c(Nc2nc(Nc3cnn(C)c3)ncc2-c2ccc3[nH]ncc3c2)c1 [Compound 277, N-(3-((5-(1H-indazol-5-yl)-2-((1-methyl-1H-pyrazol-4-yl)amino)pyrimidin-4-yl)amino)-4-fluorophenyl)acrylamide]
			444 nM	73 nM	C=CC(=O)Nc1ccc(F)c(Nc2nc(Nc3cnn(C)c3)ncc2-c2ccn3ncnc3c2)c1 [Compound 278, N-(3-((5-([1,2,4]triazolo[1,5-a]pyridin-7-yl)-2-((1-methyl-1H-pyrazol-4-yl)amino)pyrimidin-4-yl)amino)-4-fluorophenyl)acrylamide]
			5160 nM	520 nM	C=CC(=O)Nc1cccc(Nc2nc(Nc3cnn(C)c3)ncc2F)c1 [Compound 280, N-[3-({5-fluoro-2-[(1-methyl-1H-pyrazol-4-yl)amino]pyrimidin-4-yl}amino)phenyl]prop-2-enamide]
			1480 nM	617 nM	C=CC(=O)Nc1cc(Br)cc(Nc2nc(Nc3cnn(C)c3)ncc2Cl)c1 [Compound 283, N-[3-bromo-5-({5-chloro-2-[(1-methyl-1H-pyrazol-4-yl)amino]pyrimidin-4-yl}amino)phenyl]prop-2-enamide]
			874 nM	536 nM	C=CC(=O)Nc1ccc(F)c(Nc2nc(Nc3cnn(CCN(C)C)c3)ncc2Cl)c1 [Compound 284, N-(3-((5-chloro-2-((1-(2-(dimethylamino)ethyl)-1H-pyrazol-4-yl)amino)pyrimidin-4-yl)amino)-4-fluorophenyl)acrylamide]
			764 nM	473 nM	C=CC(=O)Nc1ccc(F)c(Nc2nc(Nc3ccc(CN(C)C)cc3)ncc2Cl)c1 [Compound 287, N-(3-((5-chloro-2-((4-((dimethylamino)methyl)phenyl)amino)pyrimidin-4-yl)amino)-4-fluorophenyl)acrylamide]
			3040 nM	4910 nM	C=CC(=O)Nc1ccc(F)c(Nc2nc(Nc3ccc(N(C)CCN(C)C)cc3)ncc2Cl)c1 [Compound 288, N-(3-((5-chloro-2-((4-((2-(dimethylamino)ethyl)(methyl)amino)phenyl)amino)pyrimidin-4-yl)amino)-4-fluorophenyl)acrylamide]
			2920 nM	> 9780 nM	C=CC(=O)Nc1cc(Br)cc(Nc2nc(Nc3cnn(C)c3)ncc2-c2ccc(C(F)(F)F)cc2)c1 [Compound 290, N-[3-bromo-5-({2-[(1-methyl-1H-pyrazol-4-yl)amino]-5-[4-(trifluoromethyl)phenyl]pyrimidin-4-yl}amino)phenyl]prop-2-enamide]
			1840 nM	> 10000 nM	C=CC(=O)Nc1cc(Nc2nc(Nc3cnn(C)c3)ncc2Cl)cc(C(F)(F)F)c1 [Compound 291, N-(3-((5-chloro-2-((1-methyl-1H-pyrazol-4-yl)amino)pyrimidin-4-yl)amino)-5-(trifluoromethyl)phenyl)acrylamide]
			8830 nM	1020 nM	C=CC(=O)Nc1ccc(Cl)c(Nc2nc(Nc3cnn(C)c3)ncc2-c2ccc(Br)cc2)c1 [Compound 292, N-(3-((5-(4-bromophenyl)-2-((1-methyl-1H-pyrazol-4-yl)amino)pyrimidin-4-yl)amino)-4-chlorophenyl)acrylamide]
			> 10000 nM	7790 nM	C=CC(=O)Nc1cc(Nc2nc(Nc3cnn(C)c3)ncc2Cl)cc2ccccc12 [Compound 297, N-(3-((5-chloro-2-((1-methyl-1H-pyrazol-4-yl)amino)pyrimidin-4-yl)amino)naphthalen-1-yl)acrylamide]
